Data published in patent US10624852B2, “Liposomes comprising a calcium phosphate-containing precipitate” (The University of North Carolina at Chapel Hill, priority 2009, dated 2020).
Non-standard residues stand in square brackets, D forms with d. No end group written: not given here. pY = N[C@@H](Cc1ccc(OP(=O)(O)O)cc1)C(=O)O

Tests used:
[1] = Trapping / encapsulation efficiency; type: physicochemical; details: cargo encapsulated in LCP-II
Protocol: To […] calculate the trapping efficiency of siRNA in the LCP nanoparticles, the anti-luciferase siRNA was replaced with a carboxyfluoroscein (FAM)-labeled siRNA having the same sequence (Dharmacon Inc, Lafayette, Colo.). The FAM-labeled siRNA LCP nano-particles were dissolved in lysis buffer (2 mM EDTA and 0.05% Trixton-100 in pH 7.8 Tris buffer) for quantitative analysis of the siRNA encapsulation efficiency. Standard siRNA solutions were prepared by diluting the FAM-labeled siRNA in the same lysis buffer. Then, 100 μl of the standard siRNA solution or the LCP solution was added to a 96-well plate and the fluorescence intensity was measured at 525 nm with a plate reader (Plate Chameleon Multilabel Detection Platform, Bioscan Inc., Washington D.C.). The amount of entrapped siRNA in the LCP nanoparticles was calculated based on the standard calibration curve.

H-460 cells = assay: Calcium release in live cells (Fura-2 imaging); type: cell-based, human; details: 20 μM cytochalasin D, cells with LCP nanoparticles
Protocol: Two μl of 2 mM Fura-2 AM and 2 μl of 20% Pluronic-127 were mixed for 5 min and added to 1 ml phenol red free DMEM cell culture medium before use. About 5×10^4 H-460 cells were incubated in a Lab-Tek 8-well glass chamber slide system (Fisher, Pittsburgh, Pa.) for 24 h. Two hundred μl of a 2 μM Fura-2 AM solution was added to the cell culture chamber, followed by a 50 min incubation. After washing two times with PBS, the cells were incubated in phenol red-free DMEM cell culture medium and imaged with a Nikon TE2000U microscope and OrcaER camera. Emission was monitored at 510 nm with an alternating excitation wavelength of 340 nm and 380 nm from a Xenon light source. After adding 50 μl of LCP nanoparticles, fluorescence image was obtained by setting the excitation wavelength at 340 nm for green color and 380 nm for red color. The ratio of 340 nm/380 nm was proportional to the intracellular free Ca^2+ concentration (Hirst et al. (1999) Methods Mol Biol 114:31-39). All experiments were performed at room temperature.
To study the inhibition of endocytosis, 20 mM cytochalasin D was prepared in DMSO solution and freshly diluted 1,000 times by phenol red-free DMEM medium for use. After incubating with Fura-2 AM for 60 min and 20 μM cytochalasin D for 5 min, cells were imaged as described in the presence of LCP nanoparticles.

Molecule	trapping efficiency in LCP-II nanoparticles [1]	effect on LCP-induced color change (endocytosis inhibition) (H-460 cells)
EEEEpYFELV (EEEE[pY]FELV) [peptide wherein the tyrosine (Y) is phosphorylated]	~82%	
Nc1ccn(C2OC(COP(=O)(O)O)[C@H](O)C2(F)F)c(=O)n1 (some centres unmarked) [gemcitabine monophosphate, Gemcitabine monophosphate]	~88%	
O=C([O-])c1ccccc1-c1c2ccc(=O)cc-2oc2cc([O-])ccc12.[Na+].[Na+] [sodium fluorescein, reference compound]	about 40%	
Nc1ccn([C@@H]2O[C@H](COP(=O)(O)O)[C@@H](O)[C@@H]2O)c(=O)n1 [AraC monophosphate]	about 94%	
C=C1[C@@H](C)[C@H]2[C@H](Cc3ccccc3)NC(=O)[C@]23[C@H](OC(C)=O)/C=C/[C@@](C)(O)C(=O)[C@@H](C)C/C=C/[C@H]3[C@@H]1O [cytochalasin D]		significantly reduced the color change
